Reference: US20120157500A1, “JAK INHIBITION BLOCKS RNA INTERFERENCE ASSOCIATED TOXICITIES” (priority 2009, published 2012)

Assays:
[1] = test system: LF01-SSB-induced lethality and visible hematuria; assay: Suppression of LF01-SSB-induced lethality and visible hematuria by inhibitors; format: in vivo; details: rats; for Rescue effect: Death, +inhibitor/−inhibitor / Rescue effect: Red urine, +inhibitor/−inhibitor: inhibitor 1 hr prior to LF01-SSB 9 mg/kg IV, animals with inhibitor/without inhibitor; for Rescue effect: Death, +inhibitor/−inhibitor: deaths until 96 hr; for Rescue effect: Red urine, +inhibitor/−inhibitor: urine collected over 24 hr
Excerpt: Since LF01-siRNA nanoparticles provoked lethality and multifactorial toxicities involving different systems in rats, this offers an in vivo model for pharmacologically probing the mechanism that triggers LF01-siRNA toxicities. We first evaluated the suppression of LF01-SSB-induced lethality and visible hematuria by anti-inflammation drugs and pathway-specific inhibitors of the innate immune system as shown in Table 1. […] Rats were pre-dosed with either a vehicle or one of these reagents using the dosing regimen listed in Table 1, followed by an IV dose of LF01-SSB at 9 mpk 1 hr later, and animals were monitored for lethality for 96 hr. In addition, urine was collected over the course of 24 hr for visual observation of hematuria.
Rats were dosed with PBS or one of these inhibitors 1 hr prior to IV administration of PBS or […] at 9 mg/kg. Urine samples were collected over a course of 24 hr for visual examination of hematuria (red urine). Animals were monitored for lethality until 96 hr post LF01-SSB dose. Unscheduled deaths and cases of visible hematuria in animals receiving LF01-SSB with or without inhibitor pretreatment were scored and presented.
(§1) Rat studies. All animal studies were conducted at AAALAC-accredited Merck Research laboratories' animal facility located at West Point, Pa., and all study protocols were approved by Merck West Point Institutional Animal Care and Use Committee (IACUC). Female Sprague-Dawley (SD) rats obtained from Charles River were used in these studies at an age of 4-6 weeks and with a body weight of 120-160 grams. Anti-inflammation agents were administrated using the dosing regimens listed in Table 1, 1 hr prior to tail vein injection of liposomal siRNA nanoparticles in PBS in a volume of 0.8 ml under normal pressure. At 3 hr post injection of liposomal siRNA, ˜0.2 ml blood was collected by retro-orbital bleed under anesthesia and processed as plasma for the assessment of cytokines. At 24 hr, blood was collected for evaluation of complete blood cell counts (CBC), coagulation parameters and serum chemistry by venipuncture under anesthesia followed by exsanguination, and tissues from liver, spleen and kidney were collected for determination of SSB and ApoB mRNA levels and TUNEL analysis. For visual examination of urine color, rats were housed in metabolic cages to collect urine over a course of 24 hours after injection of liposomal siRNA nanoparticles. Animals were examined 3 times a day for detection of lethality over a course of 96 hours.

[2] = test system: LF01-SSB-induced toxicities; assay: LF01-SSB-induced toxicities in rats with or without inhibitor pretreatment; format: in vivo; details: for suppression of cytokine release, elevation of serum transaminases, thrombocytopenia or coagulopathy induced by LF01-SSB: pretreatment before LF01-SSB 3 mg/kg
Description: as §1, with “At 24 hr, blood was collected for evaluation of complete blood cell counts (CBC), coagulation parameters and serum chemistry by venipuncture under anesthesia followed by exsanguination, and tissues from liver, spleen and kidney were collected for determination of SSB and ApoB mRNA levels and TUNEL analysis.” left out
Analyses of rat blood samples. Cytokines in plasma were quantified using a microsphere bead-based, multiplexed assay, Milliplex™ RCYTO-80K-PMX23 (Millipore) which allows simultaneous quantification of 23 rat cytokines including IFNγ, IL-6, MCP-1 and TNFα. All CBC, coagulation and serum chemistry parameters were analyzed by Merck Laboratory of Animal Resources and the Safety Assessment Department at West Point, Pa. CBC was determined on whole blood placed in an EDTA-treated tube using an Advia 120 Hematology Analyzer (Siemens). Coagulation parameters in citrated plasma were assessed with a Behring Coagulation System (Siemens) and serum chemistry evaluation was conducted with an Advia 1800 Clinical Chemistry Analyzer (Siemens).
TUNEL (Terminal deoxynucleotidyl transferase-mediated dUTP-biotin Nick End Labeling). TUNEL staining in tissue sections was performed using a ‘TACS™ TdT-Blue Label in Situ Apoptosis Detection Kit’ (Trevigen). Briefly, 5 μm paraffin embedded sections of liver tissue were deparaffinized, fixed, labeled, and counterstained according to the manufacturer's recommendations. In Situ labeling procedure includes extension of 3′ ends with Biotin-dNTP (TdT Labeling Rxn), followed by additions of Strep-HRP and “TACS-Blue” Label or DAB for color development. TUNEL signal was quantified using the Arial system (Applied Imaging). Quantification of mRNA. qRT-PCR assays were used to quantify SSB and ApoB mRNA levels relative to the housekeeping gene Ppib in lysates prepared from tissues using kits from Applied Biosystems. The catalog numbers are Rn0057621_g1 for SSB, Rn01499054_m1 for ApoB and Rn03302274_m1 for Ppib.

IKK1 = target: T1, IKK1 (Homo sapiens, UniProt O15111); details: Table 1, from former studies; cited from earlier work
T1 sequence (O15111 1-745): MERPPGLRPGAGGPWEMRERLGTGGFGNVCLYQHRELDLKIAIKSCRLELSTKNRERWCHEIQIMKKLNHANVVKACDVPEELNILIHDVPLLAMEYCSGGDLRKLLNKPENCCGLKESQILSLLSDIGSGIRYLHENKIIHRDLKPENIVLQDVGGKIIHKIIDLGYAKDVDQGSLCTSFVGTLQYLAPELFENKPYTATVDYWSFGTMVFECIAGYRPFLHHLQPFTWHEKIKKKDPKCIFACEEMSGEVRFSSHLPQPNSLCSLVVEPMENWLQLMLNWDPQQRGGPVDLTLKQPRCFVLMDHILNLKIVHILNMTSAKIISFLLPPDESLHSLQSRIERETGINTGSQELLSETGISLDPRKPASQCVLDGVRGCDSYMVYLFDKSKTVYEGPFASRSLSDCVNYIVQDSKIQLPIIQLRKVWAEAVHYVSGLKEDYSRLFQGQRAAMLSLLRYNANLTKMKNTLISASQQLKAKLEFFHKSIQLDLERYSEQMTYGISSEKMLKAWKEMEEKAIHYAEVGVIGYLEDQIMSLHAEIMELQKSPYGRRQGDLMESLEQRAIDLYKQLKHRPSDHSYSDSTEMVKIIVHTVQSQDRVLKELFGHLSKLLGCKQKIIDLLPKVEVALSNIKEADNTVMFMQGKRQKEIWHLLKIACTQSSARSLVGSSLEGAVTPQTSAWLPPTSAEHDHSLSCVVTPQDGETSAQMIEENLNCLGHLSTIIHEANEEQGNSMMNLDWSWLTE

IKK2 = target: T2, IKK2 (Homo sapiens, UniProt O14920); details: Table 1, from former studies; cited from earlier work
T2 sequence (O14920 1-756): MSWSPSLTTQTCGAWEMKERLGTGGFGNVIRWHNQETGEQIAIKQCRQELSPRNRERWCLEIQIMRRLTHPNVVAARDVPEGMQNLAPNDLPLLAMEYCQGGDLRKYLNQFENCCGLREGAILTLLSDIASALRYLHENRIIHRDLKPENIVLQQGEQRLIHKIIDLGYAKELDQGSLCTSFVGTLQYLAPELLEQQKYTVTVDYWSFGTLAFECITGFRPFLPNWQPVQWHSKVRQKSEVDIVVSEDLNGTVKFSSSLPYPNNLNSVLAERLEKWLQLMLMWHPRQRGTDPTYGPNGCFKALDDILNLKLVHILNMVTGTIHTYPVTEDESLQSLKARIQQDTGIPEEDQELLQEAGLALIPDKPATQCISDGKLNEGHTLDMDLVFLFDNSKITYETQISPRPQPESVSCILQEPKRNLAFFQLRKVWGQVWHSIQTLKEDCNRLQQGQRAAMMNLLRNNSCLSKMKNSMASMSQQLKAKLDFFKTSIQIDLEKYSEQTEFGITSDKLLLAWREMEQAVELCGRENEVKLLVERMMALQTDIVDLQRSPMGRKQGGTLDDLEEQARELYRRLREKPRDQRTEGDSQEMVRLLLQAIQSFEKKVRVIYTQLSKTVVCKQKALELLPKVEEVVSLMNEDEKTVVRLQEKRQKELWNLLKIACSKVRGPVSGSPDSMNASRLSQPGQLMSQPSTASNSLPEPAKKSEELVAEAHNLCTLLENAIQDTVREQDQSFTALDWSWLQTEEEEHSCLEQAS

Structure (SMILES): N.S=C(S)N1CCCC1 [PDTC]
- Rescue effect: Death, +inhibitor/−inhibitor [1]: 4/5
- Rescue effect: Red urine, +inhibitor/−inhibitor [1]: 3/5
- effect on LF01-SSB-induced coagulopathy (elongation of aPTT) ([2]; rats, pre-dosed 1 hr prior to LF01-SSB 3 mg/kg IV, 24 hr): no mitigation effect
- IC50 (IKK1): 0.4 µM
- IC50 (IKK2): 0.02 µM

Structure (SMILES): C[C@@H]1CCN(C(=O)CC#N)C[C@@H]1N(C)c1ncnc2[nH]ccc12 [CP-690550]
- effect on LF01-SSB-induced lethality and visible hematuria ([1]; pre-dosed 1 hr before LF01-SSB 9 mpk IV, monitored 96 hr): prevented
- Rescue effect: Death, +inhibitor/−inhibitor [1]: 0/4
- Rescue effect: Red urine, +inhibitor/−inhibitor [1]: 0/4
- effect on LF01-SSB toxic responses (cytokine induction, ALT and AST elevation, thrombocytopenia, elongation of aPTT, hepatic and splenic cell death) ([2]; rat, in vivo): suppression of toxic responses

Structure (SMILES): C[S+]([O-])c1ccc(-c2nc(-c3ccncc3)c(-c3ccc(F)cc3)[nH]2)cc1 (stereo not shown) [SB-203580]
- Rescue effect: Death, +inhibitor/−inhibitor [1]: 2/5
- Rescue effect: Red urine, +inhibitor/−inhibitor [1]: 2/5
- effect on LF01-SSB-induced coagulopathy (elongation of aPTT) ([2]; rat, in vivo): no mitigation effect
- effect on LF01-siRNA induction of IL-6 ([2]; rats, plasma 3 hr post LF01-SSB dose): abrogated

Structure (SMILES): N=C(N)NN [Aminoguanidine]
- Rescue effect: Death, +inhibitor/−inhibitor [1]: 4/3
- Rescue effect: Red urine, +inhibitor/−inhibitor [1]: 2/3
- suppression of cytokine release, elevation of serum transaminases, thrombocytopenia or coagulopathy induced by LF01-SSB ([2]; rats): no appreciable suppression

Structure (SMILES): Cc1ccc(-c2ncc(Cl)cc2-c2ccc(S(C)(=O)=O)cc2)cn1 [Etoricoxib]
- Rescue effect: Death, +inhibitor/−inhibitor [1]: 4/3
- Rescue effect: Red urine, +inhibitor/−inhibitor [1]: 4/4
- suppression of cytokine release, elevation of serum transaminases, thrombocytopenia or coagulopathy induced by LF01-SSB ([2]; rats): no appreciable suppression
